# In patent US20110112100A1, “Hepatitis C Virus Inhibitors” (priority 2009, published 2011):
# Experiments:
# [1] = system: 1a-H77 replicon cells; test: HCV 1a replicon inhibitory activity (Renilla luciferase); format: cell-based, hepatitis C virus; conditions: Hepatitis C virus; geometric mean, 95% confidence intervals in parentheses; 48 hours; medium with 10% FCS; read-out: IC50 value (95% Confidence Intervals) pM Replicon 1A assay
# Summary of the method: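 Replicon cells in DMEM + 10% FCS incubated 48 hours at 37° C., 5% CO2 with 1-in-3 serial dilutions of compound prepared in DMSO. Replication read as Renilla luciferase luminescence after lysis. EC50 taken from log concentration-response curves.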
# [2] = system: 1b (con1) replicon cells; test: HCV 1b replicon inhibitory activity (luciferase, Britelite Plus); format: cell-based, hepatitis C virus; conditions: Hepatitis C virus; geometric mean, 95% confidence intervals in parentheses; 48 hours; medium with 10% FCS; read-out: IC50 value (95% Confidence Intervals) pM Replicon 1B assay
# Summary of the method: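 1b (con1) luciferase replicon cells in DMEM + 10% FCS were exposed to 1-in-3 DMSO compound dilutions for 48 h at 37° C, 5% CO2. Luminescence was read 1-15 min after Britelite Plus addition; EC50 came from log concentration-response curves.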
# [3] = Compound induced cytotoxicity in HCV replicon cell lines (WST-1 reagent); format: cell-based; conditions: human, 1b (con1) HCV replicon cells; WST-1, 48 hours; in 1 experiment
# Description: Test compounds were solubilised to 4 mM in 100% DMSO. Dilutions were made to the desired starting concentration in 100% DMSO and then 1 in 3 dilutions made, again in 100% DMSO. 0.5 μl of each sample was added to 384-well assay plates. White Lumitrac (Greiner) plates were used for the 1a and 1b replicon assays and black, clear bottomed (Greiner) plates were used for the WST-1 cytotoxity assay.
# 1b (con1) replicon cells were resuspended to a concentration of 1.4×10^5 cells/ml by addition of pre-warmed medium (DMEM+10% FCS). 50 μl of this suspension was added to each well of a 384-well assay plate (Black, clear bottomed, Greiner) already containing 0.5 μl of test compound.
# All plates were covered with gas permeable seals and incubated at 37° C., 5% CO2 for 48 hours. After 48 hours, 5 μl WST-1 reagent (Roche, 11 644 807 001) was added to each well and the plate returned to the incubator for 3 hours. After this incubation period absorbance was read at 450 nm on an EnVision (Perkin Elmer) plate reader. The half maximal cytotoxic concentration (CC50) values were calculated for each compound by constructing log concentration-response curves.
# All of the exemplified compounds have been screened in a cell proliferation assay (WST-1). A majority have […] in at least 2 independent experiments, the exceptions being the compounds of examples 1, 10, 12, 23, 25, 37, 47, 48, 49, 52, 56, 57, 58, 60, 67, 68, 69, 70, 71, 72, 73, 74, 79, 81 and 84 which have CC50 values>2 μM in 1 experiment, and example 20 where the CC50 is reported as >10 nM (in this instance the top concentration tested in the assay was 10 nM).
# [4] = Plasma protein binding, Rapid Equilibrium Dialysis; format: in vitro ADME; conditions: human plasma proteins
# Description: Plasma binding free fractions (fu) were determined using a proprietary validated Rapid Equilibrium Dialysis (RED) device (Thermofisher). The analyte was spiked to a concentration of 2 μM in pre-prepared male CD rat plasma and 220 μl aliquots (n=4) were loaded into a RED device. The samples were dialysed vs. 350 μl of dulbeccos phosphate buffered saline (dPBS) for 4 h at 37° C. in a CO2 incubator in order to reach equilibrium. After 4 hours, 45 μl buffer and 15 μl plasma aliquots were taken and added to a 200 μl 384-well polypropylene plate. Respective volumes of control buffer were added to the plasma or control plasma was added to the buffer samples to give an identical matrix between samples. The samples were then crashed in 120 μl of acetonitrile and analysed via LC-MS/MS.
# For highly bound compounds in the potency assay, which includes 10% foetal calf serum, measured potencies may not reflect real intrinsic potency due to a significant degree of compound binding.
structure (smiles),measurement,setting,value
COC(=O)N[C@H](C(=O)N1CCC[C@H]1c1ncc(-c2ccc(-c3ncc4cc(-c5cnc([C@@H]6CCCN6C(=O)[C@@H](NC(=O)OC)C(C)C)[nH]5)ccc4n3)cc2)[nH]1)C(C)C [Example 1],IC50,[1],36 pM
same,IC50,[2],5.89 pM
same,CC50 at 48 h,[3],> 2000 nM
same,"fraction unbound at 4 h, 2 µM",[4],0.0015
